From patent publication US5133908A, “Process for the preparation of dispersible colloidal systems of a substance in the form of nanoparticles” (Centre National de la Recherche Scientifique (CNRS), priority 1986, dated 1992)

What was measured:
[1] = system: human serum albumin (HSA) nanoparticles; assay: level of binding of active principle to HSA nanoparticles, ultracentrifugation; format: physicochemical; conditions: for level of binding of the sodium salicylate to the nanoparticles: of the amount used
Method: (§1) Increasing amounts (from 0.25 g to 2.50 g) of sodium salicylate are added to nanoparticles prepared according to example 1 (HSA) or according to example 5 (BSA). The level of binding of the sodium salicylate to the nanoparticles, measured after ultracentrifugation, is 60% of the amount used, irrespective of the amount of active principle added.
(§2) The procedure uses as in example 1 (1 g of HSA) or of example 5 (1 g of BSA), but carried out in the presence of 0.50 g of sodium salicylate dissolved in phase 1. The mean size of the nanoparticles is 200 nm with a mean dispersion index of 0.5. The level of binding of the sodium salicylate to the nanoparticles, measured after ultracentrifugation, is 60% of the amount used.
(§3) 50 mg of doxorubicin hydrochloride are added to nanoparticles prepared according to example 1 (HSA) or according to example 5 (BSA). The level of binding of doxorubicin to the nanoparticles, measured after ultracentrifugation, is 90% of the quantity used.

[2] = system: bovine serum albumin (BSA) nanoparticles; assay: level of binding of active principle to BSA nanoparticles, ultracentrifugation; format: physicochemical; conditions: for level of binding of the sodium salicylate to the nanoparticles: of the amount used
Method: as §1, §2, §3

| SMILES | level of binding of doxorubicin to the nanoparticles ([1]; HSA nanoparticles, of the quantity used, 50 mg doxorubicin hydrochloride added) | level of binding of doxorubicin to the nanoparticles ([2]; BSA nanoparticles, of the quantity used, 50 mg doxorubicin hydrochloride added) | level of binding of the sodium salicylate to the nanoparticles ([1]; HSA nanoparticles, 0.25 g to 2.50 g added to formed nanoparticles, irrespective of amount) | level of binding of the sodium salicylate to the nanoparticles ([1]; HSA, 0.50 g dissolved in phase 1) | level of binding of the sodium salicylate to the nanoparticles ([2]; BSA nanoparticles, 0.25 g to 2.50 g added to formed nanoparticles, irrespective of amount) | level of binding of the sodium salicylate to the nanoparticles ([2]; BSA, 0.50 g dissolved in phase 1) |
| --- | --- | --- | --- | --- | --- | --- |
| COc1cccc2c1C(=O)c1c(O)c3c(c(O)c1C2=O)C[C@@](O)(C(=O)CO)C[C@@H]3O[C@H]1C[C@H](N)[C@H](O)[C@H](C)O1 [doxorubicin] | 90% | 90% |  |  |  |  |
| O=C([O-])c1ccccc1O.[Na+] [sodium salicylate] |  |  | 60% | 60% | 60% | 60% |
